Drawing on US20220372040A1, “METTL3 MODULATORS” (Accent Therapeutics, Inc., priority 2020, published 2022), this text covers IC50 for 15 compounds.

In experiment [1] the test system is m^6 A in cellular mRNA of MOLM-13 cells. Put plainly: m^6 A-mRNA LC-MS/MS assay (m^6 A cellular assay). As to conditions: Homo sapiens, 24 hours incubation, LC-MS/MS of m^6 A/A in mRNA. In kind it is cell-based. The method, then:
m^6 A-mRNA LC-MS/MS Assay
5×10^6 MOLM-13 (DSMZ) cells were seeded into 10 cm dishes in RPMI 1640 media containing 10% fetal bovine serum and placed in a humidified tissue culture incubator at 37° C. overnight. Compounds were resuspended in 100% DMSO and dosed into each dish at a fixed concentration to comprise an 8-point dose response with a 4-fold serial dilution ranging from 25 μM to 1.5 nM in 0.25% DMSO final and allowed to incubate for 24 hours in a humidified tissue culture incubator at 37° C. Cells were harvested by centrifugation followed by mRNA extraction using DTRECT Dynabeads mRNA DTRECT kit (Life Technologies). mRNA was quantified on NanoDrop spectrophotometer (Thermo Fisher Scientific) and digested into single nucleosides using Nucleoside Digestion Mix (New England Biolabs). Nucleosides are quantified with retention time on a BEH […] column (Waters) and the nucleoside-to-base ion mass transition of 282.1-150.1 (m^6 A) and 268-136 (A) on an API 6500+ triple quadrupole mass spectrometer. Quantification is performed in comparison with the standard curve, obtained from pure nucleoside standards (Selleck Chemicals) running with the same batch of samples. Percentage m^6 A in cellular mRNA is calculated as 100*(m^6 A/A).

The subject of experiment [2] is MOLM-13 cells. Put plainly: MOLM-13 48 Hour cell proliferation assay (Cell Titer-Glo). In kind it is cell-based. As to conditions: Homo sapiens. The method, then:
MOLM-13 48 Hour Cell Proliferation Assay
MOLM-13 (DSMZ) cells were seeded at 1000 cells per well in a volume of 44 μL in a Falcon 384-well tissue culture treated clear bottom microplate in RPMI 1640 media containing 10% fetal bovine serum using a Multidrop Combi (ThermoFisher Scientific). Cells were incubated overnight at 37° C. in a humidified tissue culture incubator. The Mosquito® HTS Liquid Handler was used to make a compound/media intermediate plate by aliquoting […] of compound from the initial compound dilution plate (concentrations ranging from 10.0 mM to 38.0 nM in 100% DMSO) into a V bottom 384-well screen matrix plate containing 49 µL of media containing the appropriate serum (50-fold dilution, 2% DMSO). The Apricot liquid handling system was used to transfer […] compounds from the intermediate plate into the Falcon 384-well tissue culture plate containing 44 μL cells (10-point, 4-fold dilution spanning concentrations 25.0 μM to […], 0.25% DMSO final), and placed in a humidified tissue culture incubator at 37° C. After 48 hours, 25 μL of Cell Titer-Glo reagent (Promega) was added to each well using a Multidrop Combi. The plate was protected from light and placed on an IKA plate shaker for at 300 rpm for 10 minutes at room temperature. The plate was read on an EnVision plate reader (Perkin Elmer) using the Ultra Sensitive Luminescence protocol. Data analysis was performed by normalizing the raw luminescence units to an average of the positive control values for staurosporine (100% cell death) and the negative control values for DMSO (0% cell death). An IC50 was calculated using a 4-parameter logistic nonlinear regression model in GraphPad Prism.
A general note: In ATP-based viability assays light output follows the ATP content of the culture.

For a further experiment, the target named is T1, METTL16 (Homo sapiens, UniProt Q86W50).
T1 sequence (Q86W50 1-562): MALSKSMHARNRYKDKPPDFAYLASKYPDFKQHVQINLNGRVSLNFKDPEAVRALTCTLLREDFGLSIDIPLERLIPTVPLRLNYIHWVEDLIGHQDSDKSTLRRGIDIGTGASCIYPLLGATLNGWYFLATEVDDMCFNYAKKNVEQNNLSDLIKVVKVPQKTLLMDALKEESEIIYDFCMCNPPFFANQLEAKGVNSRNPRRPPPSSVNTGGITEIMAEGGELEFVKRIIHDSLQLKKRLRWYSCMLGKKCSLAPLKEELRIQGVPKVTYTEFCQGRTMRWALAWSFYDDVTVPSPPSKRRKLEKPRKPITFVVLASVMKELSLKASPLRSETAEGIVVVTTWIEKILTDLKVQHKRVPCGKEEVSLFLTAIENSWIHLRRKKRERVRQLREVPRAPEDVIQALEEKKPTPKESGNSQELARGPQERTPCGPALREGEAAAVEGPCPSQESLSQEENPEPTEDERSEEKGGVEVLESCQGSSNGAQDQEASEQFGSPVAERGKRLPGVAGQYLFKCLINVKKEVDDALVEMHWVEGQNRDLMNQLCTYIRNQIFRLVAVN
Put plainly: METTL16 assay (3H-SAM flashplate scintillation). In kind it is biochemical. As to conditions: METTL16 100 nM, RNA 50 nM, 3H-SAM 200 nM, SAM 800 nM, 20 min. In outline:
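Radiometric methyltransferase reaction at ambient temperature in 20 mM HEPES pH 7.5, 50 mM KCl, 1 mM DTT, with 100 nM enzyme preincubated 5 min with compound. It was started with 50 nM 3′-biotinylated RNA, 200 nM 3H-SAM plus 800 nM cold SAM, run 20 min, then quenched with excess cold SAM. Product was captured on streptavidin flashplates and scintillation-counted.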

The target in a further experiment is PRMT5-MEP50 (Homo sapiens, UniProt O14744). As to the kind of experiment: PRMT5 assay (3H-SAM flashplate scintillation). The class given is biochemical. As to conditions: PRMT5-MEP50 2.5 nM, histone H4 peptide 100 nM, 3H-SAM 250 nM, 60 min. In outline: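 PRMT5-MEP50 (2.5 nM final) preincubated 5 min with compound, then reacted 60 min at ambient temperature with 100 nM biotinylated N-acetyl histone H4 peptide and 250 nM 3H-SAM in 20 mM Tris-HCl pH 8.0, 1 mM DTT, 0.01% Tween. Quenched with 15 μM cold SAM; methylated peptide captured on streptavidin flashplates, scintillation counted.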
Chain of PRMT5-MEP50 (O14744 whole entry): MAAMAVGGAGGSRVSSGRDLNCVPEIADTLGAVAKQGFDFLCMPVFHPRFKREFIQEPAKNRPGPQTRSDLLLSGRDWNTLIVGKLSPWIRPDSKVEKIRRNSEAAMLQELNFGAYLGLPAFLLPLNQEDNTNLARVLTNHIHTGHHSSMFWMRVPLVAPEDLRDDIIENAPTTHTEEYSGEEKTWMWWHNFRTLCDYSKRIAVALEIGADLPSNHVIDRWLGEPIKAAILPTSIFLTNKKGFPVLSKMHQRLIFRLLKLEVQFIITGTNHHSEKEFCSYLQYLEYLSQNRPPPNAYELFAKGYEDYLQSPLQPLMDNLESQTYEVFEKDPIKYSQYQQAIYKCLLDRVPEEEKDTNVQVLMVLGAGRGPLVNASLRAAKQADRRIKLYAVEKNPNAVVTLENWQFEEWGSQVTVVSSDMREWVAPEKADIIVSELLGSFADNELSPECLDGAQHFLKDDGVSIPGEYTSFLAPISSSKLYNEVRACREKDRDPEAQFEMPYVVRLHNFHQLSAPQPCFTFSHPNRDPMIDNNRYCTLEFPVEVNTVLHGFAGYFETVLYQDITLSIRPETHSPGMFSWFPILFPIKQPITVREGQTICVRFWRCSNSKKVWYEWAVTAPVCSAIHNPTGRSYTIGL
Chain of PRMT5-MEP50 (Q9BQA1 whole entry partner): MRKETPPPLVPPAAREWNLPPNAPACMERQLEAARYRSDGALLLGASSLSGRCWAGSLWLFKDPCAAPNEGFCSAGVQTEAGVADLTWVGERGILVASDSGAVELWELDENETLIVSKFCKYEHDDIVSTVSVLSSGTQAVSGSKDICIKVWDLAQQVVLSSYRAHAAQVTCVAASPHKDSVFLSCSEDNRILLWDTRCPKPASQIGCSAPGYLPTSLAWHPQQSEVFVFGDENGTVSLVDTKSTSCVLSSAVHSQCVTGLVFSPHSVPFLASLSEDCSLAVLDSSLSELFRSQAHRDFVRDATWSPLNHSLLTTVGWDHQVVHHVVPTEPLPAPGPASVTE

In the next experiment the target is METTL3/METTL14 (Homo sapiens, UniProt Q86U44). Put plainly: METTL3-14 standard enzyme assay (3H-SAM flashplate scintillation). The class given is biochemical. As to conditions: METTL3/METTL14 2.5 nM, RNA 100 nM, 3H-SAM 100 nM, 30 min. The essentials: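 METTL3/METTL14 (2.5 nM final) preincubated 5 min with compound in 20 mM HEPES pH 7.5, 50 mM KCl, 250 μM MgCl2, 1 mM DTT, ambient temperature; started with 100 nM 3′-biotinylated RNA (UCUGGACUAAA) and 100 nM 3H-SAM. After 30 min, quenched with 15 μM cold SAM; methylated RNA captured on streptavidin flashplates and counted by scintillation.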
Chain of METTL3/METTL14 (Q86U44 whole entry, species assumed): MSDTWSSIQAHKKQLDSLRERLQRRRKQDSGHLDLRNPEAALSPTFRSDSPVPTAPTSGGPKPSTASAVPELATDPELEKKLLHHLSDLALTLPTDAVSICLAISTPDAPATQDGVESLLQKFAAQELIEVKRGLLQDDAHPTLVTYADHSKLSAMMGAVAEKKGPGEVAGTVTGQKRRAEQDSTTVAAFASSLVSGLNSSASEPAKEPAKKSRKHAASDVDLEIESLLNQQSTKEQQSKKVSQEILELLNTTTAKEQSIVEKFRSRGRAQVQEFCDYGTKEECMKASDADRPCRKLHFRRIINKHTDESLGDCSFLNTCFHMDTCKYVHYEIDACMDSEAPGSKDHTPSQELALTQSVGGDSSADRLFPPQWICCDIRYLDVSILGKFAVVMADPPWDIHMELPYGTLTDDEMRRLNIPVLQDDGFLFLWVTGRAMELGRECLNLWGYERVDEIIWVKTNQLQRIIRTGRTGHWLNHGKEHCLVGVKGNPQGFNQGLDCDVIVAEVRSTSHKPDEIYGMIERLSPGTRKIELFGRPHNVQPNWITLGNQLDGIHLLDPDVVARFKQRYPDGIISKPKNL
Chain of METTL3/METTL14 (Q9HCE5 whole entry partner, species assumed): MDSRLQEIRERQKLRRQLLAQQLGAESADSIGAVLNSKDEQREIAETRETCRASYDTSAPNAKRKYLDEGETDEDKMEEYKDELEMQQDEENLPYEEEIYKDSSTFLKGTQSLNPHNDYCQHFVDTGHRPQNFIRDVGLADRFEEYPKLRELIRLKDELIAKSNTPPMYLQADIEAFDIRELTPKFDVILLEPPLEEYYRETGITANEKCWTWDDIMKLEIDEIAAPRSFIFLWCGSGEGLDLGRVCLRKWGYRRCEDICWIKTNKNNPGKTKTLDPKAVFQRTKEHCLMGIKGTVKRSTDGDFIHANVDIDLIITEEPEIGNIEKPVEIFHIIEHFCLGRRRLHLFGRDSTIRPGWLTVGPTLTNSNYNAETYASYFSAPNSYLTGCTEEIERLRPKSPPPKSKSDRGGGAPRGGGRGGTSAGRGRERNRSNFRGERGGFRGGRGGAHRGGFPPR

The target in another experiment is METTL1/WDR4 (Homo sapiens, UniProt Q9UBP6). Put plainly: METTL1 assay (3H-SAM flashplate scintillation). The class given is biochemical. In outline:
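Radiometric methyltransfer by METTL1/WDR4 (6.25 nM f.c., 5 min preincubation) at ambient temperature in HEPES pH 7.5, KCl, MgCl2, DTT; started with 25 nM 3′-biotinylated RNA and 60 nM 3H-SAM, run 20 min, quenched with 15 μM cold SAM. Product captured on streptavidin flashplates (2 h, 25° C), counted by scintillation.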

Experiment [3] concerns MOLM-13 cells. Put plainly: MOLM-13 96 Hour cell proliferation assay (Cell Titer-Glo). The class given is cell-based. As to conditions: Homo sapiens. In outline:
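MOLM-13 cells were seeded at 600 cells/well in RPMI 1640 with 10% FBS, then incubated overnight. Compounds were added at 0.25% DMSO final for 96 h at 37° C, with CellTiter-Glo luminescence read-out. Values normalized to staurosporine (100% death) and DMSO (0%); IC50 from 4-parameter logistic fit.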

Setting [4] is: METTL1/WDR4 6.25 nM, RNA 25 nM, 3H-SAM 60 nM, 20 min, read-out: METTL1 IC50.

Where two headings read alike, the source gives them in different places. Some results are limits rather than exact numbers.

A word on the IC50: it is the concentration at which inhibition is half-maximal.

Chain of METTL1/WDR4 (Q9UBP6 whole entry, species assumed): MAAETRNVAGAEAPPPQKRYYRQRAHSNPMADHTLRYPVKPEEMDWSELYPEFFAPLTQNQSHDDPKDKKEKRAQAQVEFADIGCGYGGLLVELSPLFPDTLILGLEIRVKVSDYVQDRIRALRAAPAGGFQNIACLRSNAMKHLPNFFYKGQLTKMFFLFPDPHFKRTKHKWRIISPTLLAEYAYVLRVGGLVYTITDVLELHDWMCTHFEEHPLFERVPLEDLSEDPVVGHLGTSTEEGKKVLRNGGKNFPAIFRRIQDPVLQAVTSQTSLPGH
Chain of METTL1/WDR4 (P57081 whole entry partner, species assumed): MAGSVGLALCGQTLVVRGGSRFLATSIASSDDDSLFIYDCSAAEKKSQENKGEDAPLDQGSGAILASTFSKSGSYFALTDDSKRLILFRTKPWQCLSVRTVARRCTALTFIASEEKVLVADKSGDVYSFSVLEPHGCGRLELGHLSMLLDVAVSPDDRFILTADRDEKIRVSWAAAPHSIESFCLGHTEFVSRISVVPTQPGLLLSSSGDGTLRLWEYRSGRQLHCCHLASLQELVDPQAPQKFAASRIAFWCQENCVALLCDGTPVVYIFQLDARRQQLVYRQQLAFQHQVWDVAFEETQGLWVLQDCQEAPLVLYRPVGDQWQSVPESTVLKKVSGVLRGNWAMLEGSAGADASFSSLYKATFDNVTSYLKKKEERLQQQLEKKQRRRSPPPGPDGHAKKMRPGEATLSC

In the case of `CNc1ccc2ccc(OCc3cncc(-c4c(C)[nH]c5c(N)ncnc45)c3)cc2n1` [Compound I-25], the IC50 in experiment [1] is ≥ 10000 nM; with MOLM-13 cells [2], ≥ 10000 nM; against METTL16, > 1000 nM; at PRMT5-MEP50, > 1000 nM; at METTL3/METTL14 it was < 10 nM.
Regarding `CCNc1ccc2ccc(OCc3cncc(-n4cc(Cl)c5c(N)ncnc54)c3)cc2n1` [Compound I-59], the IC50 in experiment [1] is 1000 to 10000 nM; with MOLM-13 cells [2], 1000 to 10000 nM; on METTL16 it was > 1000 nM; against PRMT5-MEP50, > 1000 nM; on METTL3/METTL14 it was < 10 nM.
For `CNc1ccc2ccc(OCc3cncc(-n4ccc5c(N)ncnc54)c3)cc2n1` [Compound I-60], the IC50 was 1000 to 10000 nM in experiment [1]; < 1000 nM in the experiment with MOLM-13 cells [2]; > 1000 nM against METTL16; > 1000 nM on PRMT5-MEP50; < 10 nM against METTL3/METTL14.
As for `CCc1cc(N)c2ccc(OCc3cncc(-n4cc(C5CCCC5)c5c(N)ncnc54)c3)cc2n1` [Compound I-11], the IC50 in experiment [1] was 1000 to 10000 nM; in the experiment with MOLM-13 cells [2], < 1000 nM; on METTL1/WDR4 (setting [4]), > 1000 nM; against PRMT5-MEP50, > 1000 nM; against METTL3/METTL14, < 10 nM.
As to `CNc1ccc2ccc(OCc3cc(CO)cc(-c4c[nH]c5c(N)ncnc45)c3)cc2n1` [Compound I-10], the concentration for half-maximal inhibition (IC50) is ≥ 10000 nM in experiment [1]; ≥ 10000 nM in the experiment with MOLM-13 cells [2]; > 1000 nM on METTL1/WDR4 (setting [4]); > 1000 nM against PRMT5-MEP50; < 10 nM against METTL3/METTL14.
`CC(C)c1cc(N)c2ccc(OCc3cncc(-n4ccc5c(N)ncnc54)c3)cc2n1` [Compound I-12]: the half-maximal inhibitory concentration (IC50) with MOLM-13 cells [2] was 1000 to 10000 nM; on METTL1/WDR4 (setting [4]), > 1000 nM; against PRMT5-MEP50, > 1000 nM; with MOLM-13 cells [3] it was 1000 to 10000 nM; against METTL3/METTL14, < 10 nM.
On to `CNc1ccc2ccc(OCc3cncc(-n4cc(C)c5c(N)ncnc54)c3)cc2n1` [Compound I-17], for which the IC50 in experiment [1] was ≥ 10000 nM; in the experiment on MOLM-13 cells [2] it was < 1000 nM; at METTL1/WDR4 (setting [4]) it was > 1000 nM; on PRMT5-MEP50, > 1000 nM; on METTL3/METTL14, < 10 nM.
As for `CNc1ccc2ccc(CCc3cncc(-n4cc(-c5ccn(C)n5)c5c(N)ncnc54)c3)cc2n1` [Compound I-1, 7-(2-(5-(4-amino-5-(1-methyl-1H-pyrazol-3-yl)-7H-pyrrolo[2,3-d]pyrimidin-7-yl)pyridin-3-yl)ethyl)-N-methylquinolin-2-amine], the IC50 is < 1000 nM in experiment [1]; < 1000 nM in the experiment on MOLM-13 cells [2]; > 1000 nM at METTL1/WDR4; > 1000 nM on PRMT5-MEP50; < 10 nM on METTL3/METTL14.
Consider `CNc1ccc2ccc(OCc3cc(CO)cc(-n4ccc5c(N)ncnc54)c3)cc2n1` [Compound I-6], for which the IC50 with MOLM-13 cells [2] is ≥ 10000 nM; on METTL1/WDR4 (setting [4]) it was > 1000 nM; against PRMT5-MEP50, > 1000 nM; in the experiment with MOLM-13 cells [3], 1000 to 10000 nM; at METTL3/METTL14 it was < 10 nM.
In the case of `CNc1ccc2ccc(OCc3cncc(-c4c[nH]c5c(N)ncnc45)c3)cc2n1` [Compound I-47, 7-[(5-{4-amino-5H-pyrrolo[3,2-d]pyrimidin-7-yl}pyridin-3-yl)methoxy]-N-methylquinolin-2-amine], the half-inhibitory concentration (IC50) in experiment [1] is ≥ 10000 nM; in the experiment on MOLM-13 cells [2] it was ≥ 10000 nM; against METTL16, > 1000 nM; against PRMT5-MEP50 it was > 1000 nM; against METTL3/METTL14 it was < 10 nM.
`CNc1ccc2ccc(OCc3cncc(-n4ccc5c(N)ncnc54)n3)cc2n1` [Compound I-14]: the IC50 in experiment [1] was 1000 to 10000 nM; in the experiment on MOLM-13 cells [2], 1000 to 10000 nM; at METTL1/WDR4 (setting [4]) it was > 1000 nM; against PRMT5-MEP50, > 1000 nM; on METTL3/METTL14, < 10 nM.
Turning to `CNc1ccc2ccc(OCc3cncc(-c4cn(C5CCCC5)c5c(N)ncnc45)c3)cc2n1` [Compound I-18], the half-maximal inhibitory concentration (IC50) was 1000 to 10000 nM in experiment [1]; 1000 to 10000 nM in the experiment on MOLM-13 cells [2]; > 1000 nM on METTL1/WDR4 (setting [4]); > 1000 nM at PRMT5-MEP50; < 10 nM against METTL3/METTL14.
`Cc1cc(NCCN(C)C)c2ccc(OCc3cncc(-n4cc(Cl)c5c(N)ncnc54)c3)cc2n1` [Compound I-42]: the IC50 in the experiment on MOLM-13 cells [2] was < 1000 nM; against METTL16, > 1000 nM; against PRMT5-MEP50 it was > 1000 nM; at METTL3/METTL14, 10 to 100 nM.
Consider `CCc1cc(N)c2ccc(OCc3cncc(-n4ccc5c(N)ncnc54)c3)cc2n1` [Compound I-45], for which the IC50 in experiment [1] is ≥ 10000 nM; in the experiment with MOLM-13 cells [2], ≥ 10000 nM; against METTL16, > 1000 nM; against PRMT5-MEP50, > 1000 nM; on METTL3/METTL14, < 10 nM.
For the compound `CCc1cc(NCCOC)c2ccc(OCc3cncc(-n4ccc5c(N)ncnc54)c3)cc2n1` [Compound I-16], the IC50 in experiment [1] was 1000 to 10000 nM; with MOLM-13 cells [2] it was 1000 to 10000 nM; at METTL1/WDR4 (setting [4]), > 1000 nM; against PRMT5-MEP50 it was > 1000 nM; at METTL3/METTL14, < 10 nM.
